Experimental data taken from patent US20230041228A1, “Small Molecule Inhibition of Micro-RNA-210 Reprograms an Oncogenic Hypoxic Circuit” (University of Florida Research Foundation, Incorporated, priority 2017, published 2023).

Assays:
pre-miR-210 RNA = experiment: In solution fluorescent binding assay; details: up to 5000 nM pre-miR-210 added
Protocol: Dissociation constants for the binding of pre-miR-210 RNA to Hoechst 33342 and Targapremir-210 were determined using an in solution, fluorescent binding assay. RNA was folded in 1× Binding Buffer (8 mM Na2HPO4, 190 mM NaCl, 1 mM EDTA, and 40 μg/mL BSA) at 60° C. for 5 min and then allowed to cool to room temperature for 10 min. Hoechst 33342 or Targapremir-210 was added to a final concentration of 500 nM. Next, 1:2 serial dilutions were performed in 1× Binding Buffer supplemented with 500 nM of Hoechst 33342 or Targapremir-210. Solutions were incubated for 30 min and then transferred to Corning non-binding surface 96-well black plates. Fluorescence intensity was then measured on a Bio-Tek FLX-800 plate reader. Change in fluorescence intensity was fit as a function of RNA concentration with equation 1: […]
where I and I0 are the observed fluorescence intensity in the presence and absence of RNA, respectively, Δε is the difference between the fluorescence intensity in the absence and in the presence of infinite RNA concentration, [FL]0 and [RNA]0 are the concentrations of compound (Hoechst 33342 or Targapremir-210) and RNA, respectively, and Kt is the dissociation constant.

miR-210 = experiment: RT-qPCR of miR-210 (mature, pri-, pre-) in MDA-MB-231 cells under hypoxic conditions; assay type: cell-based; details: 200 nM, hypoxic MDA-MB-231 cells
Protocol: MDA-MB-231 cells were cultured in RPMI 1640 medium supplemented with 10% FBS (Sigma), 1× Glutagro (Corning), and 1× Pen/Strep (MP Biomedicals, LLC) (growth medium). Cells cultured in normoxia were maintained at 37° C. in ambient atmosphere (˜21% O2) with 5% CO2. Cells cultured in hypoxia were maintained at 37° C., <1% O2 in a nitrogen filled hypoxic chamber (Billups-Rothenberg, Inc.), and 5% CO2.
Approximately 200-600 ng of RNA was used in subsequent reverse transcription reactions using a miScript II RT Kit (Qiagen) or a qScript cDNA Synthesis Kit (Quanta Biosciences) per the manufacturers' recommended protocols. Primers for RT-qPCR were purchased from Integrated DNA Technologies (IDT) or Eurofins (Table S1) and used without further purification. RT-qPCR samples were prepared using Power SYBR Green PCR Master Mix (Applied Biosystems) and completed by using a 7900HT Fast Real Time PCR System (Applied Biosystems). Expression levels of RNA were normalized to U6 small nuclear RNA, GAPDH mRNA, or 18S rRNA.

CCOc1ccc(-c2nc3ccc(-c4nc5ccc(N6CCN(C)CC6)cc5[nH]4)cc3[nH]2)cc1 [Hoechst 33342, reference compound]
affinity for pre-miR-210 (pre-miR-210 RNA): No saturable binding was observed | mature miR-210 levels (miR-210): no statistically significant effect
